Test results reported in PubChem BioAssay AID1199 (EPA DSSTox, 2008).
Active and inactive are the calls of the source.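 The calls were made as follows: active = a tumour-causing dose and a tumour site recorded for mice in at least one sex group; inconclusive = only government mouse studies exist and were judged inadequate; inactive = mouse studies exist but none gave tumours.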

System: mouse carcinogenicity bioassay, TD50 from CPDB
Experiment: DSSTox (CPDBAS) Carcinogenic Potency Database Summary Mouse Bioassay Results
Outline: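 Chronic long-term mouse cancer bioassays from literature and NCI/NTP, compiled per sex. TD50 is the standardized carcinogenic potency, using the most positive experiment per sex-species; target sites follow author opinion.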

[1] = TD50_Mouse_Note: no positive results, TargetSites_Mouse_Female: no positive results
[2] = TargetSites_Mouse_Female: no positive results
[3] = TD50_Mouse_Note: TD50 is harmonic mean of more than one positive test, TargetSites_Mouse_Female: liver
[4] = TD50_Mouse_Note: no positive results
[5] = TargetSites_Mouse_Female: stomach
[6] = TD50_Mouse_Note: TD50 is harmonic mean of more than one positive test, TargetSites_Mouse_Female: liver, vascular system
[7] = TD50_Mouse_Note: TD50 is harmonic mean of more than one positive test, TargetSites_Mouse_Female: lung, vascular system

SMILES: CN(C)/N=N/c1nc[nH]c1C(N)=O
- Potency (TD50_Mouse_Note: positive test results only by intraperitoneal or intravenous injection, TD50 is harmonic mean of more than one positive, TargetSites_Mouse_Female: hematopoietic system, lung, uterus, vascular system): 0.0053 mmol/kg/day

SMILES: NNc1ccc(C(=O)O)cc1
- Potency (TD50_Mouse_Note: TD50 is harmonic mean of more than one positive test, TargetSites_Mouse_Female: vascular system): 2.97 mmol/kg/day
- outcome [1]: inactive

SMILES: CN(N=O)c1ncnc2nc[nH]c12
- Potency [2]: 0.101 mmol/kg/day

SMILES: Oc1c(Cl)cc(Cl)c(Cl)c1Cc1c(O)c(Cl)cc(Cl)c1Cl
- outcome [1]: inactive; no positive results

SMILES: C[C@H](CCC(=O)O)[C@H]1CC[C@H]2[C@@H]3CC[C@@H]4C[C@H](O)CC[C@]4(C)[C@H]3CC[C@]12C
- outcome [1]: inactive; no positive results

SMILES: NNC(=O)c1ccccc1
- Potency (TD50_Mouse_Note: TD50 is harmonic mean of more than one positive test, TargetSites_Mouse_Female: hematopoietic system, lung): 0.0704 mmol/kg/day

SMILES: CCn1nc(C)c2c1C(c1ccccc1)=NCC(=O)N2
- Potency [3]: 0.425 mmol/kg/day

SMILES: Nc1ccc(-c2ccc(N)cc2)cc1
- Potency: 0.108 mmol/kg/day
- Potency (TD50_Mouse_Note: TD50 is harmonic mean of more than one positive test, TargetSites_Mouse_Female: harderian gland, liver, vascular system): 0.0766 mmol/kg/day

SMILES: O[C@@H]([C@H](O)[C@@H](O)CBr)[C@@H](O)CBr
- Potency (TD50_Mouse_Note: positive test results only by intraperitoneal or intravenous injection, TD50 is harmonic mean of more than one positive, TargetSites_Mouse_Female: hematopoietic system, lung): 0.0484 mmol/kg/day

SMILES: CN(N=O)c1ncnc2c1ncn2[C@@H]1O[C@H](CO)[C@@H](O)[C@H]1O
- Potency (TD50_Mouse_Note: TD50 is harmonic mean of more than one positive test, TargetSites_Mouse_Female: lung, mammary gland, uterus): 0.059 mmol/kg/day

SMILES: CSCCC(N)C(=O)O (stereo not drawn)
- outcome [4]: inactive; no positive results

SMILES: C=C(C)C(=O)Nc1ccc(Cl)c(Cl)c1
- outcome [1]: inactive; no positive results

SMILES: CC1(C)COC1=O
- outcome [1]: inactive; no positive results

SMILES: C=Cc1ccc(C)cc1
- outcome [1]: inactive; no positive results

SMILES: Nc1cc(Cl)cc(C(=O)O)c1Cl
- Potency (TargetSites_Mouse_Female: liver): 25.4 mmol/kg/day

SMILES: CC1CCC(C(C)C)C(O)C1 (stereo not drawn)
- outcome [1]: inactive; no positive results

SMILES: O=C1NCCN1
- outcome [1]: inactive; no positive results

SMILES: BrC(Br)Br
- outcome [1]: inactive; no positive results

SMILES: Cc1ccc(C)c(N)c1
- Potency [3]: 3.97 mmol/kg/day

SMILES: Nc1ccc(Cl)cc1
- outcome [1]: inactive; no positive results
- Potency [2]: 0.546 mmol/kg/day

SMILES: O=C1OC(c2ccc(O)cc2)(c2ccc(O)cc2)c2ccccc21
- Potency (TD50_Mouse_Note: TD50 is harmonic mean of more than one positive test, TargetSites_Mouse_Female: hematopoietic system, ovary): 3.68 mmol/kg/day

SMILES: OCCN(CCO)CCO
- Potency (TD50_Mouse_Note: TD50 is harmonic mean of more than one positive test, TargetSites_Mouse_Female: all tumor bearing animals): 0.67 mmol/kg/day

SMILES: CNC[C@H](O)c1cccc(O)c1
- outcome [1]: inactive; no positive results

SMILES: Clc1nc(Cl)nc(Nc2ccccc2Cl)n1
- outcome [1]: inactive; no positive results

SMILES: Oc1ccccc1
- outcome [1]: inactive; no positive results

SMILES: N=C1C=CC(=C(c2ccc(N)cc2)c2ccc(N)cc2)C=C1
- Potency (TD50_Mouse_Note: TD50 is harmonic mean of more than one positive test, TargetSites_Mouse_Female: adrenal gland, liver): 0.159 mmol/kg/day

SMILES: c1ccccc1
- Potency (TD50_Mouse_Note: TD50 is harmonic mean of more than one positive test, greater than ten-fold variation among TD50 values for positive res, TargetSites_Mouse_Female: ear Zymbals gland, hematopoietic system, lung, mammary gland, ovary): 0.992 mmol/kg/day

SMILES: C=C(Cl)CSC(=S)N(CC)CC
- Potency (TD50_Mouse_Note: TD50 is harmonic mean of more than one positive test, TargetSites_Mouse_Female: mammary gland): 0.189 mmol/kg/day

SMILES: ClCOCCCCOCCl
- outcome [1]: inactive

SMILES: Cc1ccc(OP(=O)(Oc2ccc(C)cc2)Oc2ccc(C)cc2)cc1
- outcome [1]: inactive; no positive results

SMILES: CN(C)c1ccc(N=NS(=O)(=O)O)cc1
- outcome [1]: inactive; no positive results

SMILES: CCCCCCc1ccc(O)cc1O
- outcome [1]: inactive; no positive results

SMILES: O=C(O)Cc1c[nH]c2ccccc12
- outcome [1]: inactive; no positive results

SMILES: ClCC(Cl)(Cl)Cl
- Potency [3]: 1.08 mmol/kg/day

SMILES: CNc1ncnc2c1ncn2[C@@H]1O[C@H](CO)[C@@H](O)[C@H]1O
- outcome [1]: inactive; no positive results

SMILES: O=S(=O)([O-])[O-].[O]=[V+2]
- outcome [1]: inactive; no positive results

SMILES: Cc1c(COC(=O)C2C(/C=C(\Cl)C(F)(F)F)C2(C)C)cccc1-c1ccccc1 (stereo not drawn)
- outcome [1]: inactive; no positive results

SMILES: Oc1ccc(Cl)cc1Cl
- outcome [1]: inactive; no positive results

SMILES: O=C(Nc1nc(-c2ccc([N+](=O)[O-])o2)cs1)C(F)(F)F
- Potency [5]: 0.0325 mmol/kg/day

SMILES: [O]=[Mo](=[O])=[O]
- Potency (TD50_Mouse_Note: TD50 is harmonic mean of more than one positive test, greater than ten-fold variation among TD50 values for positive res, TargetSites_Mouse_Female: lung): 0.0426 mmol/kg/day

SMILES: ClCC(Br)CBr (stereo not drawn)
- Potency (TD50_Mouse_Note: TD50 is harmonic mean of more than one positive test, TargetSites_Mouse_Female: lung, nasal cavity, stomach): 0.0115 mmol/kg/day

SMILES: C=CCOCC1CO1 (stereo not drawn)
- Potency [2]: 1.59 mmol/kg/day

SMILES: Cc1ccc(N)cc1
- Potency [3]: 0.581 mmol/kg/day

SMILES: CN(C)C(=S)SC(=S)N(C)C
- outcome [1]: inactive; no positive results

SMILES: Cn1cc(C(=O)[C@@H]2CCc3nc[nH]c3C2)c2ccccc21
- outcome [1]: inactive; no positive results

SMILES: c1ccc2sc(SNC3CCCCC3)nc2c1
- outcome [1]: inactive; no positive results

SMILES: ClCCCl
- Potency (TD50_Mouse_Note: TD50 is harmonic mean of more than one positive test, TargetSites_Mouse_Female: liver, lung, mammary gland, uterus): 1.39 mmol/kg/day

SMILES: Brc1c(Br)c(Br)c(Oc2c(Br)c(Br)c(Br)c(Br)c2Br)c(Br)c1Br
- outcome [1]: inactive; no positive results

SMILES: CNCCC(Oc1ccc(C(F)(F)F)cc1)c1ccccc1 (stereo not drawn)
- outcome [1]: inactive; no positive results

SMILES: CC(=O)Nc1ccc2c(c1)Cc1ccccc1-2
- Potency (TD50_Mouse_Note: TD50 is harmonic mean of more than one positive test, greater than ten-fold variation among TD50 values for positive res, TargetSites_Mouse_Female: liver, urinary bladder): 0.034 mmol/kg/day

SMILES: CN(C)C(=O)Nc1ccc(Cl)c(Cl)c1
- outcome [1]: inactive; no positive results

SMILES: N#Cc1c(Cl)c(Cl)c(Cl)c(C#N)c1Cl
- outcome [1]: inactive; no positive results

SMILES: c1ccc2sc(SN3CCOCC3)nc2c1
- outcome [1]: inactive; no positive results

SMILES: ClC(Cl)=C(c1ccc(Cl)cc1)c1ccc(Cl)cc1
- Potency [3]: 0.0393 mmol/kg/day

SMILES: Oc1ccccc1-c1ccccc1
- outcome [1]: inactive; no positive results

SMILES: O=[N+]([O-])c1ccc(O)c([N+](=O)[O-])c1
- outcome [1]: inactive
- outcome (TargetSites_Mouse_BothSexes: no positive results): inactive

SMILES: O=S(=O)(O)c1cc(S(=O)(=O)O)c2c(N=Nc3ccccc3)c(O)ccc2c1
- outcome [1]: inactive; no positive results

SMILES: FC(F)OC(Cl)C(F)(F)F (stereo not drawn)
- outcome [1]: inactive; no positive results

SMILES: CN(N=O)C(=O)N[C@@H]1[C@@H](O)[C@H](O)[C@@H](CO)O[C@@H]1O
- Potency (TD50_Mouse_Note: positive test results only by intraperitoneal or intravenous injection, TD50 is harmonic mean of more than one positive, TargetSites_Mouse_Female: kidney, lung): 0.00103 mmol/kg/day

SMILES: CC(Cl)C=O (stereo not drawn)
- Potency [5]: 0.139 mmol/kg/day

SMILES: COc1ccc(N)cc1
- outcome [1]: inactive; no positive results

SMILES: ClC1=C(Cl)[C@]2(Cl)[C@@H]3[C@H]4C=CC(C4)[C@@H]3C1(Cl)C2(Cl)Cl
- Potency (TD50_Mouse_Note: TD50 is harmonic mean of more than one positive test, TargetSites_Mouse_BothSexes: liver): 0.00348 mmol/kg/day

SMILES: S=C(SSSSSSC(=S)N1CCCCC1)N1CCCCC1
- outcome [1]: inactive; no positive results

SMILES: C=CC(OC(C)=O)c1ccc2c(c1)OCO2 (stereo not drawn)
- outcome [4]: inactive; no positive results

SMILES: O=NN(c1ccccc1)c1ccccc1
- outcome [1]: inactive; no positive results

SMILES: Cc1ccc2ccccc2c1
- outcome [1]: inactive; no positive results

SMILES: COP(=O)(OC)OC=C(Cl)Cl
- Potency (TD50_Mouse_Note: TD50 is harmonic mean of more than one positive test, TargetSites_Mouse_Female: stomach): 0.319 mmol/kg/day

SMILES: CCNc1nc(Cl)nc(NCC)n1
- outcome [1]: inactive; no positive results

SMILES: Cc1cccc(C)c1NC(=O)CN1CCCC1=O
- outcome [1]: inactive; no positive results

SMILES: CC(C)CON=O
- Potency (TD50_Mouse_Note: TD50 is harmonic mean of more than one positive test, TargetSites_Mouse_Female: lung): 3.01 mmol/kg/day

SMILES: CN(C)C(=S)[S][Pb][S]C(=S)N(C)C
- outcome [1]: inactive; no positive results

SMILES: COc1cc(-c2ccc(N)c(OC)c2)ccc1N
- Potency (TD50_Mouse_Note: no positive results are statistically significant, TargetSites_Mouse_Female: no positive results): 0.233 mmol/kg/day

SMILES: FC(Cl)(Cl)Cl
- outcome [1]: inactive; no positive results

SMILES: Cc1ccc([N+](=O)[O-])cc1N
- Potency [6]: 1.82 mmol/kg/day

SMILES: CC(=O)NNc1ccc(CO)cc1
- Potency [7]: 1.34 mmol/kg/day

SMILES: c1ccc2c(c1)cc1ccc3cccc4ccc2c1c34
- Potency (TD50_Mouse_Note: TD50 is harmonic mean of more than one positive test, TargetSites_Mouse_Female: esophagus, oral cavity, stomach): 0.0138 mmol/kg/day

SMILES: Cc1ccc(N=C=O)cc1N=C=O
- Potency (TargetSites_Mouse_Female: liver, vascular system): 1.44 mmol/kg/day

SMILES: c1ccc2sc(SSc3nc4ccccc4s3)nc2c1
- outcome [1]: inactive; no positive results

SMILES: O=C1CN(/N=C/c2ccc([N+](=O)[O-])o2)C(=O)N1
- Potency (TargetSites_Mouse_Female: ovary): 5.88 mmol/kg/day

SMILES: Cl[C@H]1OCCO[C@@H]1Cl
- outcome [1]: inactive

SMILES: CCCCN(CCCC)N=O
- Potency: 0.00689 mmol/kg/day

SMILES: O.O.O.O.O.O.O=S(=O)([O-])[O-].[Ni+2]
- outcome [1]: inactive; no positive results

SMILES: Cc1ccccc1N
- Potency [6]: 5.85 mmol/kg/day

SMILES: CC(=O)C1C(=O)C=C(C)OC1=O (stereo not drawn)
- outcome [1]: inactive; no positive results

SMILES: S=C([S-])NCCNC(=S)[S-].[Zn+2]
- outcome [1]: inactive; no positive results

SMILES: NNC(N)=O
- Potency [7]: 2 mmol/kg/day

SMILES: Nc1ccc(Oc2ccc(N)c(N)c2)cc1
- Potency: 0.0618 mmol/kg/day

SMILES: Nc1ccc(O)c([N+](=O)[O-])c1
- outcome [1]: inactive; no positive results

SMILES: Cc1nc(N)cc2[nH]c3ccccc3c12
- Potency (TD50_Mouse_Note: TD50 is harmonic mean of more than one positive test, greater than ten-fold variation among TD50 values for positive res, TargetSites_Mouse_Female: liver): 0.049 mmol/kg/day

SMILES: CC(=O)Nc1nnc(-c2ccc([N+](=O)[O-])o2)s1
- Potency [5]: 0.0265 mmol/kg/day

SMILES: Nc1ccc(O)c(N)c1
- Potency [2]: 0.726 mmol/kg/day

SMILES: O=[N+]([O-])c1c(Cl)c(Cl)c(Cl)c(Cl)c1Cl
- Potency [2]: 0.241 mmol/kg/day

SMILES: C=C1C(CCl)(CCl)C2(Cl)C(Cl)C(Cl)C1(Cl)C2(Cl)Cl (stereo not drawn)
- outcome (TD50_Mouse_Note: TD50 is harmonic mean of more than one positive test, TD50_Mouse_mmol was not calculated for this mixture, but Activiity, TargetSites_Mouse_Female: liver): active; liver

SMILES: CC1=C[C@H]2[C@@]3(O)[C@H](C)[C@@H](O)[C@]4(O)[C@H]([C@@H]3C=C(CO)C[C@]2(O)C1=O)C4(C)C
- Potency (TD50_Mouse_Note: positive test results only by intraperitoneal or intravenous injection, TargetSites_Mouse_Female: hematopoietic system): 0.00606 mmol/kg/day
